# Results: article PMC11078990, “Identification and characterization of small molecule inhibitors of the LINE-1 retrotransposon endonuclease” (Nature Communications, 2024)
# Values joined by “and” are separate entries in the source; they are usually repeats but may differ in a detail not shown here. Equal entries are not always repeated.
# Experiments:
# L1 retrotransposition = experiment: HeLa dual-luciferase L1 retrotransposition assay; type: cell-based, human; conditions: for L1 retrotransposition, average: average of 4 replicates, Figure 4b
# [1] = system: DNA fragmentation (comet tail length) in HeLa Tet-On cells expressing EN domain; experiment: Neutral comet assay, EN domain-only constructs; type: cell-based, human; conditions: 25 μM inhibitor; EN domain-only construct; neutral comet assay; normalised to WT
# APE1 = target: T1, APE1 (Homo sapiens, UniProt P27695); experiment: APE1 fluorescent oligonucleotide activity assay (abasic site substrate); type: biochemical
# T1 construct: purchased New England Biolabs (NEB) M0282S
# [2] = system: substrate oligonucleotide used in the EN activity assay; type: binding; set-up: key to Binding Detected? (Y/N): Binding Detected? (Y/N); Binding Detected? (Y/N)
# [3] = system: L1-induced DNA damage in HeLa Tet-On cells (EN domain only); experiment: γ-H2AX immunofluorescence assay, EN domain-only constructs; type: cell-based, human
# HeLa Tet-On cells = conditions: human, 48 h, 25 μM
# [4] = target: L1 EN (LINE-1 retrotransposon endonuclease domain) (Homo sapiens, UniProt O00370, N5T); experiment: Fluorescent oligonucleotide EN nicking activity assay; type: biochemical; conditions: technical replicates 1-3, Fig. 2b source data
# Chain of L1 EN (LINE-1 retrotransposon endonuclease domain) (O00370 1-239 N5T): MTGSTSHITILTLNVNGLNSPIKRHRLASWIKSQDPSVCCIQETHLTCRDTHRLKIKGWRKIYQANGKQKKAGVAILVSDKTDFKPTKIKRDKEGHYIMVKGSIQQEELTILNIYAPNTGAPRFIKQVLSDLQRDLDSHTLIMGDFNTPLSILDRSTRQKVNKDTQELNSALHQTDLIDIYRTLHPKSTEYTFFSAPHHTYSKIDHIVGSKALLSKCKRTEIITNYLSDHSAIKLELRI
smiles,measurement,setting,value
Nn1cnn2c(SCC(=O)Cc3ccc(-c4nc5cc(NC(=O)CSc6nnc7n(N)cnn67)ccc5o4)cc3)nnc12 [AD16],"L1 retrotransposition, average",L1 retrotransposition; 0.5 μM inhibitor,6.997
same,"L1 retrotransposition, average",L1 retrotransposition; 1 μM inhibitor,6.79
same,"L1 retrotransposition, average",L1 retrotransposition; 5 μM inhibitor,6.3671
same,"L1 retrotransposition, average",L1 retrotransposition; 10 μM inhibitor,6.224
same,"L1 retrotransposition, average",L1 retrotransposition; 25 μM inhibitor,5.375
same,"L1 retrotransposition, average",L1 retrotransposition; 50 μM inhibitor,4.14
same,"Luciferase (retrotransposition), average","L1 retrotransposition; Figure 4a Graph 1, 25 μM, 0 μM average 9.554",3.568
same,"Luciferase (retrotransposition), replicates","L1 retrotransposition; Figure 4a Graph 1, 25 μM, Replicates 1-4, 0 μM average 9.554",3.791 and 3.903 and 3.817 and 2.762
same,"Nuclei comet tail length, average (WT = 1)",[1],0.5888
same,"APE1 percent activity, Replicate 1","APE1; compound at 25 μM, Replicate 1",93.7909%
same,"APE1 percent activity, Replicate 2","APE1; compound at 25 μM, Replicate 2",100.33%
same,"APE1 percent activity, Replicate 3","APE1; compound at 25 μM, Replicate 3",92.4773%
same,"APE1 percent activity, average","APE1; compound at 25 μM, average of 3 replicates",95.5327%
same,activity at 25 µM,"APE1; inhibitors at 25 μM, relative to 0 μM inhibitor control, mean ± s.d., 3 independent experiments, read-out: APE1 activity (%)",95.5 ± 4.2%
same,Binding Detected? (Y/N),[2],Y
same,Binding to the oligonucleotide substrate,[2],detectable binding
same,"Inhibition of DNA damage, EN domain-only experiments",[3],better efficacy
same,"PrestoBlue (viability), average",HeLa Tet-On cells,13.01
same,"EN activity, percent of no inhibitor control","[4]; [Inhibitor] 0.2 μM, 0.2 µM",82.0267% and 71.1107% and 113.489%
same,"EN activity, percent of no inhibitor control","[4]; [Inhibitor] 1 μM, 1 µM",95.0279% and 119.352% and 94.1929%
same,"EN activity, percent of no inhibitor control","[4]; [Inhibitor] 5 μM, 5 µM",53.9202% and 53.7999%
same,remaining activity at 5 µM,"[4]; [Inhibitor] 5 μM, read-out: EN activity, percent of no inhibitor control",52.1%
same,"EN activity, percent of no inhibitor control","[4]; [Inhibitor] 10 μM, 10 µM",8.722% and 8.848%
same,remaining activity at 10 µM,"[4]; [Inhibitor] 10 μM, read-out: EN activity, percent of no inhibitor control",9.85%
same,"EN activity, percent of no inhibitor control","[4]; [Inhibitor] 25 μM, 25 µM",4.539% and 2.3611%
same,remaining activity at 25 µM,"[4]; [Inhibitor] 25 μM, read-out: EN activity, percent of no inhibitor control",3.82%
same,"EN activity, percent of no inhibitor control","[4]; [Inhibitor] 50 μM, 50 µM",5.5014% and 3.599%
same,remaining activity at 50 µM,"[4]; [Inhibitor] 50 μM, read-out: EN activity, percent of no inhibitor control",5.19%
same,"EN activity, percent of no inhibitor control","[4]; [Inhibitor] 100 μM, 100 µM",3.629% and 2.352%
same,remaining activity at 100 µM,"[4]; [Inhibitor] 100 μM, read-out: EN activity, percent of no inhibitor control",2.31%
